In patent US20180179386A1, “NANOGEL COMPOUND” (priority 2015, published 2018):

System: DOXO resistant cell line KB-V1
Assay: Cytotoxicity of DOXO-loaded nanogel compounds vs free DOXO, MTT assay, resistant cells
Format: cell-based
Conditions: free DOXO up to 10 μM external concentration
Text: In order to use the nanogel compounds for anticancer therapy, the cytotoxicity of the DOXO-loaded nanogel compounds compared with free DOXO was studied in two different cell lines: sensitive-type HeLa cells and DOXO resistant cell line KB-V1. Thereby, squares denote PNIPAM-dPG/AMPS, circles denote PNIPAM-dPG/DMAEM, and triangles denote free DOXO.

Question: With `COc1cccc2c1C(=O)c1c(O)c3c(c(O)c1C2=O)C[C@@](O)(C(=O)CO)C[C@@H]3O[C@H]1C[C@H](N)[C@H](O)[C@H](C)O1` [DOXO, doxorubicin] as the compound, how does the cytotoxicity read?
Answer: no effect
